Results as given in US4398937A, “Selective algaecides for control of cyanochloronta” (The University of Southern Mississippi, priority 1981, dated 1983).
Like-named read-outs stand apart in the source and are kept apart here.

Columns and labels:
Assay type in all cases: cell-based
[1] = test system: Anabaena sp.; test: Test tube culture inhibition of Anabaena sp., algal units/ml
Description: (§1) The algae used in this particular study were Chlamydomonas sp., Chlorella vulgaris, Anabaena sp., and Anabaena flos-aquae. Cultures of these algae were obtained, subcultured, and aqueous stocks of algae in 400 ml BBM were prepared and were used in log phase growth to innoculate test cultures.
(§2) The fatty acids which were tested as algal inhibitors were 9, 10-dihydroxystearic acid, linoleic acid, dodecanoic acid, and ricinoleic acid.
(§3) The test procedure involved placing 15 ml of BBM into 25 ml test tubes and innoculating them with 0.2 ml of algal stock solution. Twenty test tubes were innoculated with each algae. Four of these cultures were used with each concentration of each of the fatty acids. Four tubes from each set served as controls. Four concentrations of the fatty acids were used for each alga. The concentrations studied were 0.5 PPM, 1.0 PPM, 5.0 PPM, and 10.0 PPM.
(§4) Algal cultures were incubated under constant light of about 200 foot-candles and at a temperature of 68° F. Bold's Basal Medium (BBM), a modification of Bristol's solution was the medium in which all the cultures were grown. Bold's Basal Medium was prepared as follows:
(§5) Concentrations of fatty acids and the amount of stock solution used to prepare them were as follows:
(§6) Each test tube contained 15 ml sterile BBM. To this was added an aliquot of 0.2 of algal stock solution. Then the appropriate aliquots of warm acid stock solution were added to the appropriate number of culture tubes. These cultures were then incubated 5 days and at that point were counted. The same cultures were also counted after a 12 day growth period.
(§7) Stock solutions of the fatty acids to be tested as algal inhibitors were made from a stock solution of 5% sodium bicarbonate in glass-distilled water. The 5% sodium bicarbonate stock solution was made by dissolving 150 grams of sodium bicarbonate in 3000 ml of glass-distilled water. To insure complete dissolution, the solution was heated and stirred on a magnetic stirrer hot plate. The warm solution was used in preparing the fatty acid stock solutions.
(§8) Quanitative phytoplankton values were determined using the random field method. Filaments, colonies, and aggregations of cells were recorded as algal units. Each unit consisted of approximately 6 cells. Unicellular algae were counted as separate units. Algal counts were made from each of three duplicate cultures. One ml of the algal sample was placed in a Sedgwick-Rafter counting chamber, which is 50 mm long by 20 mm, wide by 1 mm deep. A Wild Heerbrugg, compound microscope with a Whipple grid eyepiece was used to determine quantitative algae values.
(§9) One ml of the algal solution was placed in the counting chamber, and two drops of methyl cellulose were added to minimize the movement of Chlamydomonas sp. Ten random fields were counted and all organisms within the Whipple grid field were enumerated.
(§10) The following formula used to calculate the numbers per milliliter from the field counts: [formula] where: C=number of organisms counted,
(§11) The area of the Whipple grid used was 0.46 mm^2, and the depth of a field was 1 mm. Results of the counts were reported as algal units/ml.

[2] = test system: Anabaena flos-aquae; test: Test tube culture inhibition of Anabaena flos-aquae, algal units/ml
Description: as §1, §2, §3, §4, §5, §6, §7, §8, §9, §10, §11

[3] = test system: Chlorella vulgaris; test: 300 ml batch culture of Chlorella vulgaris, visual; conditions: batch cultures, all concentrations
Description: (§12) As a means of visually confirming some of the results batch cultures of 300 ml. of Anabaena flos-aquae and Chlorella vulgaris were grown.

[4] = test system: Chlorella vulgaris; test: Test tube culture inhibition of Chlorella vulgaris, algal units/ml
Description: as §1, §2, §3, §4, §5, §6, §7, §8, §9, §10, §11

[5] = test system: Anabaena flos-aquae; test: 300 ml batch culture of Anabaena flos-aquae, visual
Description: as §12

[6] = test system: Chlamydomonas sp.; test: Test tube culture inhibition of Chlamydomonas sp., algal units/ml
Description: as §1, §2, §3, §4, §5, §6, §7, §8, §9, §10, §11

[7] = 5 and 12 days, all concentrations

CCCCCC[C@@H](O)C/C=C\CCCCCCCC(=O)O [Ricinoleic Acid, ricinoleic acid]
inhibition of growth at 5 ppm ([1]; 120 h, 5 days, 5.0 PPM, read-out: reduction of algal units/ml, % of the control): 15.6% | inhibition of growth at 10 ppm ([1]; 120 h, 5 days, 10.0 PPM, read-out: reduction of algal units/ml, % of the control): 30.6% | Algal units/ml ([1]; 5 days, 0.5 PPM): 36522 units/ml | Algal units/ml ([1]; 5 days, 1.0 PPM): 35652 units/ml | Algal units/ml ([1]; 5 days, 5.0 PPM): 26957 units/ml | Algal units/ml ([1]; 5 days, 10.0 PPM): 22174 units/ml | reduction in algal units/ml vs control ([1]; 5 days, 10.0 PPM): 9,783 algal units/ml | inhibition of growth at 0.5 ppm ([1]; 288 h, 12 days, 0.5 PPM (so in the source), read-out: reduction of algal units/ml, % of the control): 59.7% | inhibition of growth at 10 ppm ([1]; 288 h, 12 days, 10 PPM, read-out: reduction of algal units/ml, % of the control): 65.2% | Algal units/ml ([1]; 12 days, 0.5 PPM): 97391 units/ml | reduction of algal units/ml vs control ([1]; 12 days, 0.5 PPM (so in the source)): 70,434 algal units/ml | Algal units/ml ([1]; 12 days, 1.0 PPM): 81957 units/ml | Algal units/ml ([1]; 12 days, 5.0 PPM): 47609 units/ml | reduction of algal units/ml vs control ([1]; 12 days, 10 PPM): 76,956 algal units/ml | Algal units/ml ([1]; 12 days, 10.0 PPM): 41087 units/ml | effect on growth ([1]; concentrations of 1.0 PPM or less): stimulatory effect | effect on algal growth [2, 7]: inhibitory effect | Algal units/ml ([2]; 5 days, 0.5 PPM): 435 units/ml | Algal units/ml ([2]; 5 days, 1.0 PPM): 1087 units/ml | Algal units/ml ([2]; 5 days, 5.0 PPM): 1087 units/ml | Algal units/ml ([2]; 5 days, 10.0 PPM): 652 units/ml | Algal units/ml ([2]; 12 days, 0.5 PPM): 10217 units/ml | Algal units/ml ([2]; 12 days, 1.0 PPM): 6522 units/ml | Algal units/ml ([2]; 12 days, 5.0 PPM): 4783 units/ml | reduction in number of algal units/ml vs control ([2]; 12 days, 10 PPM): 38,261 algal units/ml | Algal units/ml ([2]; 12 days, 10.0 PPM): 3043 units/ml | inhibition of growth at 10 ppm ([2]; Dolichospermum flos-aquae, 288 h, 12 days, 10 PPM, read-out: reduction in number of algal units/ml, % of the control): 92.6% | inhibition (visual) [3]: no inhibition was noticed | Algal units/ml ([4]; 5 days, 0.5 PPM): 20217 units/ml | Algal units/ml ([4]; 5 days, 1.0 PPM): 21739 units/ml | Algal units/ml ([4]; 5 days, 5.0 PPM): 22391 units/ml | Algal units/ml ([4]; 5 days, 10.0 PPM): 20870 units/ml | Algal units/ml ([4]; 12 days, 0.5 PPM): 217391 units/ml | Algal units/ml ([4]; 12 days, 1.0 PPM): 326087 units/ml | Algal units/ml ([4]; 12 days, 5.0 PPM): 326087 units/ml | Algal units/ml ([4]; 12 days, 10.0 PPM): 326087 units/ml | activation at 0.5 ppm ([4]; Chlorella vulgaris, 120 h, 5 days, 0.5 PPM, read-out: more algal units/ml than in the control): 86% | activation at 10 ppm ([4]; Chlorella vulgaris, 288 h, 12 days, 10 PPM, read-out: more algal units/ml than in the control): 50% | effect on algal growth ([4]; all concentrations at 5 days, 5 and 10 PPM at 12 days): stimulatory effect | inhibition (visual) ([5]; 1 PPM): slightly inhibited | inhibition (visual) ([5]; 10 PPM): greatly inhibited | effect on algal growth [6, 7]: stimulatory effect | concentration of maximum stimulatory effect ([6]; 5 days): 5.0 PPM | Algal units/ml ([6]; 5 days, 0.5 PPM): 18696 units/ml | Algal units/ml ([6]; 5 days, 1.0 PPM): 29130 units/ml | Algal units/ml ([6]; 5 days, 5.0 PPM): 32609 units/ml | Algal units/ml ([6]; 5 days, 10.0 PPM): 13043 units/ml | concentration of maximum stimulatory effect ([6]; 12 days): 0.5 PPM | Algal units/ml ([6]; 12 days, 0.5 PPM): 65217 units/ml | Algal units/ml ([6]; 12 days, 1.0 PPM): 63043 units/ml | Algal units/ml ([6]; 12 days, 5.0 PPM): 52174 units/ml | Algal units/ml ([6]; 12 days, 10.0 PPM): 54348 units/ml | activation at 5 ppm ([6]; Chlamydomonas, 120 h, read-out: increase in number of algal units/ml of the control): 183%
